In data set [1] the test system is Mus musculus. As to the kind of experiment: In vivo activity against mice infected with murine p388 lymphocytic leukemia cells at a ip dose of 0.05 mg/kg. Type of data set: functional. To be noted: route intraperitoneal.
For data set [2], the system named is Mus musculus. Briefly: In vivo activity against mice infected with murine p388 lymphocytic leukemia cells at a ip dose of 0.1 mg/kg. Type of data set: functional. To be noted: route intraperitoneal.
Data set [3] deals with Mus musculus. Briefly: In vivo activity against mice infected with murine p388 lymphocytic leukemia cells at a ip dose of 0.2 mg/kg. Type of data set: functional. To be noted: route intraperitoneal.
Data set [4] is described as follows: In vivo activity against mice infected with murine p388 lymphocytic leukemia cells at a ip dose of 0.4 mg/kg; Toxic. Type of data set: toxicity, organism-based. Further details: dose 0.4 mg/kg, route intraperitoneal. To be noted: mouse.
The nature of data set [5]: In vivo activity against mice infected with murine p388 lymphocytic leukemia cells at a ip dose of 0.8 mg/kg; Toxic. Type of data set: toxicity, organism-based. To be noted: mouse. More on the design: dose 0.8 mg/kg, route intraperitoneal.
A short description of data set [6]: In vivo activity was against mice infected with murine p388 lymphocytic leukemia cells at a ip dose of 0.8 mg/kg; Toxic. Type of data set: toxicity, organism-based. Further details: dose 0.8 mg/kg, route intraperitoneal. As to conditions: mouse.
Data set [7] concerns Mus musculus. As to the kind of experiment: In vivo activity against mice infected with murine p388 lymphocytic leukemia cells at a ip dosage range of 0.05-1.6 mg/kg; Inactive. Type of data set: functional, organism-based.
For data set [8], the system named is Mus musculus. Briefly: In vivo activity against mice infected with murine p388 lymphocytic leukemia cells at a ip dose of 0.4 mg/kg. Type of data set: functional. As to conditions: route intraperitoneal.
Data set [9] relates to Mus musculus. As to the kind of experiment: In vivo activity against mice infected with murine p388 lymphocytic leukemia cells at a ip dose of 0.8 mg/kg. Type of data set: functional. As to conditions: route intraperitoneal.
Data set [10] concerns Mus musculus. Briefly: In vivo activity against mice infected with murine p388 lymphocytic leukemia cells at a ip dose of 0.2 mg/kg; Toxic. Type of data set: functional, organism-based. Further details: dose 0.2 mg/kg.
Data set [11] is described as follows: In vivo activity against mice infected with mice infected with murine p388 lymphocytic leukemia cells at a ip dose of 0.4 mg/kg; Toxic. Type of data set: toxicity, organism-based. Further details: dose 0.4 mg/kg, route intraperitoneal. To be noted: mouse.

The source made the active and inactive calls. The calls are words filed in the database; no cut-off is given here.

The source of these data is ChEMBL document CHEMBL1149951, “Antileukaemic properties of 12-hydroxydaphnetoxin derivatives” (Bioorg Med Chem Lett, 1994).

The ILS is the gain in survival time of treated over control animals, in per cent.

The compound `C=C(C)C12OC3(c4ccccc4)OC1[C@@H]1[C@@H]4O[C@]4(CO)[C@@H](O)[C@]4(O)C(=O)C=C[C@@]4(C)C1(O3)[C@H](C)[C@H]2OC(=O)/C=C/C=C/CCCCC` (stereo partly drawn) displayed an ILS at 0.05 mg/kg with Mus musculus [1] of 33%. The same compound displayed an ILS at 0.1 mg/kg with Mus musculus [2] of 33%. This compound also displayed an ILS at 0.2 mg/kg in the data set on Mus musculus [3] of 42%. Besides, the increase in lifespan (ILS) result in [4] and in [5] was “Toxic” each time.
Compound `C=C(C)C12OC3(c4ccccc4)OC1[C@@H]1[C@@H]4O[C@]4(CO)[C@@H](O)[C@]4(O)C(=O)C=C[C@@]4(C)C1(O3)[C@H](C)[C@H]2OC(=O)/C=C/C=C/c1ccccc1` (stereo partly drawn) had an ILS at 0.05 mg/kg with Mus musculus [1] of 33%. Moreover, the ILS at 0.1 mg/kg with Mus musculus [2] is 33%. Moreover, the ILS at 0.2 mg/kg with Mus musculus [3] amounted to 67%. Further, the ILS result in [6] and in [4] was “Toxic” each time.
For `C=C(C)C12OC3(c4ccccc4)OC1[C@@H]1[C@@H]4O[C@@]45COC(C)(C)O[C@H]5[C@]4(O)C(=O)C=C[C@@]4(C)C1(O3)[C@H](C)[C@H]2OC(=O)/C=C/C=C/C=C/CCC` (stereo partly drawn), the ILS result in the data set on Mus musculus [7] is “inactive”.
`CC(C)C12OC3(c4ccccc4)OC1[C@@H]1[C@@H]4O[C@]4(CO)[C@@H](O)[C@]4(O)C(=O)CC[C@@]4(C)C1(O3)[C@H](C)[C@H]2OC(=O)CCc1ccccc1` (stereo partly drawn): the ILS at 0.05 mg/kg in the data set on Mus musculus [1] is < 20%. The ILS at 0.1 mg/kg in the data set on Mus musculus [2] was < 20%. Further, the increase in lifespan (ILS) at 0.2 mg/kg in the data set with Mus musculus [3] is < 20%. In the data set on Mus musculus [8], the increase in life span (ILS) at 0.4 mg/kg came to 25%. In the data set on Mus musculus [9], this compound came in with an ILS at 0.8 mg/kg of 30%.
Consider `C=C(C)C12OC3(c4ccccc4)OC1[C@@H]1[C@@H]4O[C@]4(CO)[C@@H](O)[C@]4(O)C(=O)C=C[C@@]4(C)C1(O3)[C@H](C)[C@H]2O` (stereo partly drawn), for which the ILS entry with Mus musculus [7] was “inactive”.
Same read-out and setting: next, `C=C(C)C12OC3(c4ccccc4)OC1[C@@H]1[C@@H]4O[C@@]45COC(C)(C)O[C@H]5[C@]4(O)C(=O)C=C[C@@]4(C)C1(O3)[C@H](C)[C@H]2O` (stereo partly drawn): “inactive”.
Turning to `C=C(C)C12OC3(c4ccccc4)OC1[C@@H]1[C@@H]4O[C@]4(CO)[C@@H](O)[C@]4(O)C(=O)C(C)=C[C@H]4C1(O3)[C@H](C)[C@H]2OC(=O)/C=C/C=C/C=C/CCC` (stereo partly drawn) [GNIDITRIN], the ILS at 0.05 mg/kg in the data set on Mus musculus [1] worked out at 44%. The ILS at 0.1 mg/kg with Mus musculus [2] was found to be 68%. Also, the ILS entry (in the data set on Mus musculus [10]; in [4]; in data set [5]) was “Toxic” each time.
As for `C=C(C)C12OC3(c4ccccc4)OC1[C@@H]1[C@@H]4O[C@@]45COC(C)(C)O[C@H]5[C@]4(O)C(=O)C=C[C@@]4(C)C1(O3)[C@H](C)[C@H]2OC(=O)/C=C/C=C/c1ccccc1` (stereo partly drawn), the ILS result with Mus musculus [7] was “inactive”.
Regarding `CC(C)C12OC3(c4ccccc4)OC1[C@@H]1[C@@H]4O[C@]4(CO)[C@@H](O)[C@]4(O)C(=O)C=C[C@@]4(C)C1(O3)[C@H](C)[C@H]2OC(=O)c1ccccc1` (stereo partly drawn), the increase in lifespan (ILS) at 0.05 mg/kg with Mus musculus [1] was < 20%. The compound also came in with an ILS at 0.1 mg/kg in the data set with Mus musculus [2] of 30%. Moreover, the ILS at 0.2 mg/kg in the data set on Mus musculus [3] is 42%. The increase in lifespan (ILS) at 0.4 mg/kg in the data set with Mus musculus [8] was determined as 48%. Besides, the ILS entry in [5] is given as “Toxic”.
The matching figures for `CC(C)C12OC3(c4ccccc4)OC1[C@@H]1[C@@H]4O[C@]4(CO)[C@@H](O)[C@]4(O)C(=O)C=C[C@@]4(C)C1(O3)[C@H](C)[C@H]2OC(=O)CCc1ccccc1` (stereo partly drawn): < 20%, < 20%, 38%, 40% and “Toxic”.
For `CCCCCCCCCC(=O)O[C@@H]1[C@@H](C)C23OC4(c5ccccc5)OC([C@@H]2[C@@H]2O[C@]2(CO)[C@@H](O)[C@]2(O)C(=O)C=C[C@@]32C)C1(C(C)C)O4` (stereo partly drawn), in the data set on Mus musculus [1], the ILS at 0.05 mg/kg was < 20%. Also, the ILS at 0.1 mg/kg in the data set with Mus musculus [2] was < 20%. In the data set on Mus musculus [3], the ILS at 0.2 mg/kg is < 20%. In addition, in the data set with Mus musculus [8], the ILS at 0.4 mg/kg stood at 30%. This compound showed an ILS at 0.8 mg/kg with Mus musculus [9] of 27%.
For `CC(C)C12OC3(c4ccccc4)OC1[C@@H]1[C@@H]4O[C@]4(CO)[C@@H](O)[C@]4(O)C(=O)CC[C@@]4(C)C1(O3)[C@H](C)[C@H]2OC(=O)CCCCCCCCc1ccccc1` (stereo partly drawn), the ILS at 0.05 mg/kg in the data set on Mus musculus [1] is < 20%. Moreover, the ILS at 0.1 mg/kg in the data set on Mus musculus [2] was < 20%. Further, in the data set on Mus musculus [3], the increase in lifespan (ILS) at 0.2 mg/kg was < 20%. In the data set on Mus musculus [8], the ILS at 0.4 mg/kg is 25%. Also, the ILS at 0.8 mg/kg in the data set with Mus musculus [9] amounted to 25%.
Consider `C=C(C)C12OC3(c4ccccc4)OC1[C@@H]1[C@@H]4O[C@]4(CO)[C@@H](O)[C@]4(O)C(=O)C=C[C@@]4(C)C1(O3)[C@H](C)[C@H]2OC(=O)/C=C/c1ccccc1` (stereo partly drawn), for which the ILS at 0.05 mg/kg in the data set on Mus musculus [1] is < 20%. For the same compound, in the data set on Mus musculus [2], the ILS at 0.1 mg/kg was determined as 60%. Also, the ILS at 0.2 mg/kg in the data set with Mus musculus [3] was found to be 73%. Also, the ILS entry in data set [11] and in data set [5] was “Toxic” throughout.
With `C=C(C)C12OC3(c4ccccc4)OC1[C@@H]1[C@@H]4O[C@@]45COC(C)(C)O[C@H]5[C@]4(O)C(=O)C=C[C@@]4(C)C1(O3)[C@H](C)[C@H]2OC(=O)/C=C/C=C/CCCCC` (stereo partly drawn), the ILS result with Mus musculus [7] is “inactive”.
Consider `CC(C)C12OC3(c4ccccc4)OC1[C@@H]1[C@@H]4O[C@]4(CO)[C@@H](O)[C@]4(O)C(=O)CC[C@@]4(C)C1(O3)[C@H](C)[C@H]2OC(=O)CCCCc1ccccc1` (stereo partly drawn), for which, in the data set with Mus musculus [1], the ILS at 0.05 mg/kg is < 20%. The ILS at 0.1 mg/kg in the data set with Mus musculus [2] was < 20%. For the same compound, the increase in lifespan (ILS) at 0.2 mg/kg in the data set with Mus musculus [3] was < 20%. Moreover, the ILS at 0.4 mg/kg in the data set on Mus musculus [8] came to 29%. The same compound registered an increase in life span (ILS) at 0.8 mg/kg in the data set on Mus musculus [9] of 27%.
For the compound `C=C(C)C12OC3(c4ccccc4)OC1[C@@H]1[C@@H]4O[C@@]45COC(C)(C)O[C@H]5[C@]4(O)C(=O)C=C[C@@]4(C)C1(O3)[C@H](C)[C@H]2OC(=O)/C=C/c1ccccc1` (stereo partly drawn), the ILS result in the data set on Mus musculus [7] is “inactive”.
As to `C=C(C)C12OC3(c4ccccc4)OC1[C@@H]1[C@@H]4O[C@]4(CO)[C@@H](O)[C@]4(O)C(=O)C=C[C@@]4(C)C1(O3)[C@H](C)[C@H]2OC(=O)CCCCCCCCC` (stereo partly drawn), the ILS at 0.05 mg/kg in the data set on Mus musculus [1] is < 20%. Besides, the ILS at 0.1 mg/kg in the data set with Mus musculus [2] was < 20%. Besides, in the data set with Mus musculus [3], the increase in life span (ILS) at 0.2 mg/kg was < 20%. Moreover, the ILS at 0.4 mg/kg with Mus musculus [8] is 42%. For the same compound, the ILS at 0.8 mg/kg with Mus musculus [9] was 43%.
Regarding `C=C(C)C12OC3(c4ccccc4)OC1[C@@H]1[C@@H]4O[C@]4(CO)[C@@H](O)[C@]4(O)C(=O)C=C[C@@]4(C)C1(O3)[C@H](C)[C@H]2OC(=O)c1ccccc1` (stereo partly drawn), in the data set with Mus musculus [1], the ILS at 0.05 mg/kg was < 20%. In addition, the increase in lifespan (ILS) at 0.1 mg/kg with Mus musculus [2] is < 20%. The ILS at 0.2 mg/kg in the data set on Mus musculus [3] came out at 32%. In addition, the ILS at 0.4 mg/kg in the data set with Mus musculus [8] turned out to be 40%. Besides, the ILS result in data set [5] is “Toxic”.
Consider `C=C(C)C12OC3(c4ccccc4)OC1[C@@H]1[C@@H]4O[C@@]45COC(C)(C)O[C@H]5[C@]4(O)C(=O)C=C[C@@]4(C)C1(O3)[C@H](C)[C@H]2OC(=O)c1ccccc1` (stereo partly drawn), for which, in the data set on Mus musculus [7], the ILS entry is “inactive”.
Regarding `CC(C)C12OC3(c4ccccc4)OC1[C@@H]1[C@@H]4O[C@]4(CO)[C@@H](O)[C@]4(O)C(=O)C=C[C@@]4(C)C1(O3)[C@H](C)[C@H]2OC(=O)CCCCc1ccccc1` (stereo partly drawn), the ILS at 0.05 mg/kg in the data set on Mus musculus [1] was < 20%. For the same compound, the ILS at 0.1 mg/kg in the data set with Mus musculus [2] is < 20%. The compound also gave an ILS at 0.2 mg/kg with Mus musculus [3] of 43%. For the same compound, the ILS at 0.4 mg/kg in the data set on Mus musculus [8] came to 43%. The ILS entry in [5] was “Toxic”.
As to `C=C(C)C12OC3(c4ccccc4)OC1[C@@H]1[C@@H]4O[C@@]45COC(C)(C)O[C@H]5[C@]4(O)C(=O)C=C[C@@]4(C)C1(O3)[C@H](C)[C@H]2OC(=O)CCCCCCCCC` (stereo partly drawn), in the data set with Mus musculus [7], the ILS result was “inactive”.
